What all share (experiment): relative viability (nuclei count vs DMSO), 5 days (fraction); higher = more cells survive
Compound in the experiment “XMD14-99 + Navitoclax”: CN1CCN(CC1)C2=CC(=C(C=C2)NC3=NC(=C(S3)C(=O)C4=C(C=CC=C4Cl)Cl)N)OC [XMD14-99] + CC1(C)CCC(c2ccc(Cl)cc2)=C(CN2CCN(c3ccc(C(=O)NS(=O)(=O)c4ccc(N[C@H](CCN5CCOCC5)CSc5ccccc5)c(S(=O)(=O)C(F)(F)F)c4)cc3)CC2)C1 [Navitoclax] (partner 0.5 µM)
The method, boiled down:
(§1)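 Relative viability is defined as nuclei in treated wells over nuclei in vehicle wells. Duplicate plates were run and medians reported. Lung cancer cell lines in 1536-well plates were dosed by pin tool one day after seeding, with one drug or with a fixed anchor-drug dose plus five library-drug doses (not always all listed) in √10 steps, and nuclei were counted after 5 days.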

Compound in the experiment “XMD14-99 + Dasatinib”: CN1CCN(CC1)C2=CC(=C(C=C2)NC3=NC(=C(S3)C(=O)C4=C(C=CC=C4Cl)Cl)N)OC [XMD14-99] + Cc1nc(Nc2ncc(C(=O)Nc3c(C)cccc3Cl)s2)cc(N2CCN(CCO)CC2)n1 [Dasatinib] (partner 0.075 µM)
The method, boiled down:
as §1

Compound in the experiment “AZD1208 + Tozasertib”: N[C@@H]1CCCN(c2c(/C=C3\SC(=O)NC3=O)cccc2-c2ccccc2)C1 [AZD1208] + Cc1cc(Nc2cc(N3CCN(C)CC3)nc(Sc3ccc(NC(=O)C4CC4)cc3)n2)n[nH]1 [Tozasertib] (partner 0.1 µM)
The method, boiled down: as §1

Compound in the experiment “AZD1208 + Pemetrexed”: N[C@@H]1CCCN(c2c(/C=C3\SC(=O)NC3=O)cccc2-c2ccccc2)C1 [AZD1208] + Nc1nc2[nH]cc(CCc3ccc(C(=O)N[C@@H](CCC(=O)O)C(=O)O)cc3)c2c(=O)[nH]1 [Pemetrexed] (partner 0.2 µM)
The essentials:
as §1

As to 201T, the relative viability with XMD14-99 + Navitoclax (first compound 0.08 µM) is 1.18; with XMD14-99 + Navitoclax (first compound 0.8 µM) it was 1.17; in the experiment with XMD14-99 + Navitoclax (first compound 2.53 µM), 1.11; in the experiment with XMD14-99 + Navitoclax (first compound 8 µM), 1.15; in the experiment with XMD14-99 + Dasatinib (first compound 0.08 µM) it was 0.593; with XMD14-99 + Dasatinib (first compound 0.8 µM), 0.618. For the same cell line, the relative viability stood at 0.546 with XMD14-99 + Dasatinib (first compound 2.53 µM); 0.523 with XMD14-99 + Dasatinib (first compound 8 µM); 0.959 with AZD1208 + Tozasertib (first compound 0.08 µM); 0.934 with AZD1208 + Tozasertib (first compound 0.253 µM); 0.865 with AZD1208 + Tozasertib (first compound 0.8 µM); 0.803 with AZD1208 + Tozasertib (first compound 2.53 µM). Also, the relative viability with AZD1208 + Tozasertib (first compound 8 µM) was 0.649; with AZD1208 + Pemetrexed (first compound 0.08 µM), 0.346; with AZD1208 + Pemetrexed (first compound 0.253 µM) it was 0.339; in the experiment with AZD1208 + Pemetrexed (first compound 0.8 µM), 0.305; in the experiment with AZD1208 + Pemetrexed (first compound 2.53 µM), 0.269; with AZD1208 + Pemetrexed (first compound 8 µM), 0.327.
In the case of A549, the relative viability in the experiment with XMD14-99 + Navitoclax (first compound 0.08 µM) worked out at 1.14; with XMD14-99 + Navitoclax (first compound 0.8 µM), 1.13; in the experiment with XMD14-99 + Navitoclax (first compound 2.53 µM), 1.03; with XMD14-99 + Navitoclax (first compound 8 µM), 0.724.
As for A-427, the relative viability was 0.894 in the experiment with XMD14-99 + Navitoclax (first compound 0.08 µM); 0.954 with XMD14-99 + Navitoclax (first compound 0.8 µM); 0.779 with XMD14-99 + Navitoclax (first compound 2.53 µM); 0.807 with XMD14-99 + Navitoclax (first compound 8 µM); 0.624 with XMD14-99 + Dasatinib (first compound 0.08 µM); 0.651 with XMD14-99 + Dasatinib (first compound 0.8 µM). Besides, the relative viability with XMD14-99 + Dasatinib (first compound 2.53 µM) amounted to 0.545; with XMD14-99 + Dasatinib (first compound 8 µM), 0.479; with AZD1208 + Tozasertib (first compound 0.08 µM), 0.196; with AZD1208 + Tozasertib (first compound 0.253 µM), 0.195; with AZD1208 + Tozasertib (first compound 0.8 µM) it was 0.212; in the experiment with AZD1208 + Tozasertib (first compound 2.53 µM) it was 0.18. The relative viability with AZD1208 + Tozasertib (first compound 8 µM) was found to be 0.185; with AZD1208 + Pemetrexed (first compound 0.08 µM) it was 0.971; with AZD1208 + Pemetrexed (first compound 0.253 µM), 1.05; with AZD1208 + Pemetrexed (first compound 0.8 µM), 0.847; with AZD1208 + Pemetrexed (first compound 2.53 µM), 1.03; with AZD1208 + Pemetrexed (first compound 8 µM), 0.911.
ABC-1: the relative viability in the experiment with XMD14-99 + Dasatinib (first compound 0.08 µM) is 0.555; with XMD14-99 + Dasatinib (first compound 0.8 µM), 0.689; with XMD14-99 + Dasatinib (first compound 2.53 µM), 0.483; in the experiment with XMD14-99 + Dasatinib (first compound 8 µM), 0.46; with AZD1208 + Tozasertib (first compound 0.08 µM), 0.168; in the experiment with AZD1208 + Tozasertib (first compound 0.253 µM), 0.155. The results for the relative viability with AZD1208 + Tozasertib (first compound 0.8 µM), with AZD1208 + Tozasertib (first compound 2.53 µM) and in the experiment with AZD1208 + Tozasertib (first compound 8 µM) were 0.214, 0.192 and 0.192, respectively.
As to BEN, the relative viability with XMD14-99 + Navitoclax (first compound 0.08 µM) is 0.0784; in the experiment with XMD14-99 + Navitoclax (first compound 0.8 µM), 0.0577; with XMD14-99 + Navitoclax (first compound 2.53 µM), 0.0776; with XMD14-99 + Navitoclax (first compound 8 µM), 0.0694; with XMD14-99 + Dasatinib (first compound 0.08 µM), 0.29; in the experiment with XMD14-99 + Dasatinib (first compound 0.8 µM), 0.36. For the same cell line, the relative viability was 0.25 in the experiment with XMD14-99 + Dasatinib (first compound 2.53 µM); 0.244 with XMD14-99 + Dasatinib (first compound 8 µM); 0.507 in the experiment with AZD1208 + Tozasertib (first compound 0.08 µM); 0.414 with AZD1208 + Tozasertib (first compound 0.253 µM); 0.385 with AZD1208 + Tozasertib (first compound 0.8 µM); 0.374 with AZD1208 + Tozasertib (first compound 2.53 µM). Also, the relative viability was determined as 0.435 with AZD1208 + Tozasertib (first compound 8 µM); 0.877 with AZD1208 + Pemetrexed (first compound 0.08 µM); 0.525 with AZD1208 + Pemetrexed (first compound 0.253 µM); 0.568 with AZD1208 + Pemetrexed (first compound 0.8 µM); 0.612 with AZD1208 + Pemetrexed (first compound 2.53 µM); 0.558 with AZD1208 + Pemetrexed (first compound 8 µM).
Consider CAL-12T, for which the relative viability was found to be 1.28 with XMD14-99 + Navitoclax (first compound 0.08 µM); 1.14 with XMD14-99 + Navitoclax (first compound 0.8 µM); 1.21 in the experiment with XMD14-99 + Navitoclax (first compound 2.53 µM); 1.16 with XMD14-99 + Navitoclax (first compound 8 µM); 0.34 with XMD14-99 + Dasatinib (first compound 0.08 µM); 0.449 with XMD14-99 + Dasatinib (first compound 0.8 µM). Moreover, the relative viability is 0.356 with XMD14-99 + Dasatinib (first compound 2.53 µM); 0.248 in the experiment with XMD14-99 + Dasatinib (first compound 8 µM); 0.35 with AZD1208 + Tozasertib (first compound 0.08 µM); 0.355 in the experiment with AZD1208 + Tozasertib (first compound 0.253 µM); 0.322 with AZD1208 + Tozasertib (first compound 0.8 µM); 0.323 with AZD1208 + Tozasertib (first compound 2.53 µM). In addition, the relative viability with AZD1208 + Tozasertib (first compound 8 µM) turned out to be 0.271; with AZD1208 + Pemetrexed (first compound 0.08 µM) it was 1.21; with AZD1208 + Pemetrexed (first compound 0.253 µM) it was 1.22; with AZD1208 + Pemetrexed (first compound 0.8 µM) it was 1.18; with AZD1208 + Pemetrexed (first compound 2.53 µM), 1.23; with AZD1208 + Pemetrexed (first compound 8 µM) it was 1.14.
Regarding COR-L23, the relative viability worked out at 0.951 in the experiment with XMD14-99 + Navitoclax (first compound 0.08 µM); 0.894 in the experiment with XMD14-99 + Navitoclax (first compound 0.8 µM); 0.746 in the experiment with XMD14-99 + Navitoclax (first compound 2.53 µM); 0.538 in the experiment with XMD14-99 + Navitoclax (first compound 8 µM); 0.556 in the experiment with XMD14-99 + Dasatinib (first compound 0.08 µM); 0.452 in the experiment with XMD14-99 + Dasatinib (first compound 0.8 µM). Further, the relative viability with XMD14-99 + Dasatinib (first compound 2.53 µM) is 0.337; with XMD14-99 + Dasatinib (first compound 8 µM) it was 0.183; with AZD1208 + Tozasertib (first compound 0.08 µM) it was 0.152; with AZD1208 + Tozasertib (first compound 0.253 µM), 0.174; with AZD1208 + Tozasertib (first compound 0.8 µM), 0.187; in the experiment with AZD1208 + Tozasertib (first compound 2.53 µM), 0.182. In addition, the relative viability with AZD1208 + Tozasertib (first compound 8 µM) turned out to be 0.171; in the experiment with AZD1208 + Pemetrexed (first compound 0.08 µM) it was 0.188; with AZD1208 + Pemetrexed (first compound 0.253 µM), 0.193; with AZD1208 + Pemetrexed (first compound 0.8 µM), 0.195; with AZD1208 + Pemetrexed (first compound 2.53 µM), 0.206; with AZD1208 + Pemetrexed (first compound 8 µM) it was 0.194.
Regarding COR-L 105, the relative viability with XMD14-99 + Navitoclax (first compound 0.08 µM) is 0.776; with XMD14-99 + Navitoclax (first compound 0.8 µM), 0.724; with XMD14-99 + Navitoclax (first compound 2.53 µM) it was 0.842; with XMD14-99 + Navitoclax (first compound 8 µM), 0.767; in the experiment with XMD14-99 + Dasatinib (first compound 0.08 µM), 0.345; with XMD14-99 + Dasatinib (first compound 0.8 µM), 0.388. Besides, the relative viability with XMD14-99 + Dasatinib (first compound 2.53 µM) was 0.255; with XMD14-99 + Dasatinib (first compound 8 µM), 0.281; in the experiment with AZD1208 + Tozasertib (first compound 0.08 µM) it was 0.35; with AZD1208 + Tozasertib (first compound 0.253 µM) it was 0.384; in the experiment with AZD1208 + Tozasertib (first compound 0.8 µM) it was 0.376; with AZD1208 + Tozasertib (first compound 8 µM) it was 0.348. Moreover, the relative viability with AZD1208 + Pemetrexed (first compound 0.08 µM) came out at 1.1; in the experiment with AZD1208 + Pemetrexed (first compound 0.253 µM), 0.982; in the experiment with AZD1208 + Pemetrexed (first compound 0.8 µM), 1.01; with AZD1208 + Pemetrexed (first compound 2.53 µM), 1.2; in the experiment with AZD1208 + Pemetrexed (first compound 8 µM), 1.08.
For Calu-6, the relative viability stood at 0.772 in the experiment with XMD14-99 + Navitoclax (first compound 0.08 µM), 0.802 in the experiment with XMD14-99 + Navitoclax (first compound 0.8 µM), 0.726 with XMD14-99 + Navitoclax (first compound 2.53 µM) and 0.473 with XMD14-99 + Navitoclax (first compound 8 µM).

These data come from the supplement of paper PMC10307832.
